The source of these data is patent publication EP0551518A1, “QUINOLINECARBOXYLIC ACID DERIVATIVE” (NIPPON SHINYAKU COMPANY, LIMITED, priority 1990, dated 1992).

Values after ≈ are worked out from the molar mass of the structure shown. Where a name gives a salt, the structure may show the parent alone. Read-outs that look alike come from different tables or passages of the source.

Common to all, as to type: cell-based
In test [1] the test system is Bacillus subtilis ATCC 6633. As to the kind of experiment: Determination of minimal inhibitory concentration of growth (MIC)-1, agar plate dilution method. The note with it: Bacillus subtilis ATCC 6633, agar plate dilution, 10⁶ CFU/ml, 37°C, 18 hours. Here is the method:
(§1) Method: MIC was determined by the agar plate dilution method in accordance with the standard protocol of Japan Society of Chemotherapy (cf. Chemotherapy 29 (1), 76-79, 1981). Each bacterial culture obtained by 18-hour incubation in a sensitivity assay bouillon medium at 37°C was diluted to 10⁶ CFU/ml with the same medium. Using a microplanter, a sensitivity assay agar medium containing the test drug was inoculated with the diluted culture and incubated at 37°C for 18 hours. The MIC value was then determined. As reference drugs, 6-fluoro-1-methyl-4-oxo-7-(1-piperazinyl)-4H-[1,3]thiazeto[3,2-a]quinoline-3-carboxylic acid (referred to as control), ciprofloxacin (CPFX) and ofloxacin (OFLX) were used.

For the next test, the system named is Proteus vulgaris HX-19. The description is as above. The note with it: Proteus vulgaris HX-19, agar plate dilution, 10⁶ CFU/ml, 37°C, 18 hours. On the procedure: as §1
Test [2] concerns Staphylococcus aureus 209-P JC-1. Described as above. Conditions: Staphylococcus aureus 209-P JC-1, agar plate dilution, 10⁶ CFU/ml, 37°C, 18 hours. On the procedure:
as §1

In another test the test system is Escherichia coli KC-14. Described as above. The note with it: 10⁶ CFU/ml, 37°C. On the procedure:
as §1

Test [3] relates to Staphylococcus epider-midis IFO 12993. Described as above. The note with it: Staphylococcus epider-midis IFO 12993, agar plate dilution, 10⁶ CFU/ml, 37°C, 18 hours. On the procedure:
as §1

For test [4], the system named is Enterococcus faecalis ATCC 29212. The test is described as above. Conditions: Enterococcus faecalis ATCC 29212, agar plate dilution, 10⁶ CFU/ml, 37°C, 18 hours. On the procedure:
as §1

The test system of test [5] is Staphylococcus aureus OWPH 1984 (MRSA). The test is described as above. The note with it: Staphylococcus aureus OWPH 1984 (MRSA), agar plate dilution, 10⁶ CFU/ml, 37°C, 18 hours. On the procedure: as §1
Test [6] relates to Staphylococcus aureus OWPH 2125 (MRSA, PCA^r ). The description is as above. The note with it: Staphylococcus aureus OWPH 2125 (MRSA, PCA^r), agar plate dilution, 10⁶ CFU/ml, 37°C, 18 hours. Here is the method:
as §1

The subject of test [7] is Staphylococcus aureus Smith. Described as above. The note with it: Staphylococcus aureus Smith, agar plate dilution, 10⁶ CFU/ml, 37°C, 18 hours. On the procedure:
as §1

In test [8] the test system is Micrococcus luteus ATCC 9341. The description is as above. Conditions: Micrococcus luteus ATCC 9341, agar plate dilution, 10⁶ CFU/ml, 37°C, 18 hours. Here is the method: as §1
In test [9] the test system is Pseudomonas aeruginosa IFO 3445. The description is as above. The note with it: Pseudomonas aeruginosa IFO 3445, agar plate dilution, 10⁶ CFU/ml, 37°C, 18 hours. Here is the method: as §1
In the next test the test system is S. aureus Sh 44. As to the kind of experiment: Determination of minimal inhibitory concentration (MIC)-2, new quinolone-resistant MRSA. The note with it: Staphylococcus aureus, SH44, 18 h; S. aureus Sh 44, new quinolone-resistant and methicillin-resistant; same procedure as Test Example 1. On the procedure:
as §1
(§2) The antibacterial activity of the compounds obtained in Example 4, Example 25 and Example 26 of the present invention was assayed by the same procedure as in Test Example 1. As reference drugs, 6-fluoro-1-methyl-4-oxo-7-(1-piperazinyl)-4H-[1,3]-thiazeto[3,2-a]quinoline-3-carboxylic acid (referred to as Control), norfloxacin (NFLX) and tosufloxacin (TFLX) were used.

The test system of a further test is S. aureus OWPH 1799. The description is as above. Conditions: Staphylococcus aureus, OWPH1799, 18 h; S. aureus OWPH 1799, new quinolone-resistant and methicillin-resistant; same procedure as Test Example 1. Here is the method:
as §1, §2

Another test relates to S. aureus OWPH 1786. The description is as above. The note with it: Staphylococcus aureus, OWPH1786, 18 h; S. aureus OWPH 1786, new quinolone-resistant and methicillin-resistant; same procedure as Test Example 1. Here is the method:
as §1, §2

Another test concerns S. aureus OWPH 1793. The test is described as above. Conditions: Staphylococcus aureus, OWPH1793, 18 h; S. aureus OWPH 1793, new quinolone-resistant and methicillin-resistant; same procedure as Test Example 1. Here is the method:
as §1, §2

A further test deals with S. aureus Sh 54. The description is as above. Conditions: Staphylococcus aureus, SH54, 18 h; S. aureus Sh 54, new quinolone-resistant and methicillin-resistant; same procedure as Test Example 1. Here is the method:
as §1, §2

A further test deals with S. aureus Sh 2. The test is described as above. Conditions: Staphylococcus aureus, SH2, 18 h; S. aureus Sh 2, new quinolone-resistant and methicillin-resistant; same procedure as Test Example 1. Here is the method:
as §1, §2

Another test deals with S. aureus OWPH 2128. The description is as above. Conditions: Staphylococcus aureus, OWPH2128, 18 h; S. aureus OWPH 2128, new quinolone-resistant and methicillin-resistant; same procedure as Test Example 1. Here is the method: as §1, §2
The test system of another test is S. aureus OWPH 2124. The description is as above. The note with it: Staphylococcus aureus, OWPH2124, 18 h; S. aureus OWPH 2124, new quinolone-resistant and methicillin-resistant; same procedure as Test Example 1. Here is the method:
as §1, §2

The test system of the next test is S. aureus OWPH 1796. Described as above. Conditions: Staphylococcus aureus, OWPH1796, 18 h; S. aureus OWPH 1796, new quinolone-resistant and methicillin-resistant; same procedure as Test Example 1. Here is the method:
as §1, §2

For another test, the system named is S. aureus OWPH 2134. The test is described as above. Conditions: Staphylococcus aureus, OWPH2134, 18 h; S. aureus OWPH 2134, new quinolone-resistant and methicillin-resistant; same procedure as Test Example 1. Here is the method:
as §1, §2

For the next test, the system named is S. aureus OWPH 1773. Described as above. The note with it: Staphylococcus aureus, OWPH1773, 18 h; S. aureus OWPH 1773, new quinolone-resistant and methicillin-resistant; same procedure as Test Example 1. Here is the method:
as §1, §2

In the next test the test system is S. aureus OWPH 1792. Described as above. The note with it: Staphylococcus aureus, OWPH1792, 18 h; S. aureus OWPH 1792, new quinolone-resistant and methicillin-resistant; same procedure as Test Example 1. On the procedure: as §1, §2
The next test has as its system S. aureus Sh 47. Described as above. The note with it: Staphylococcus aureus, SH47, 18 h; S. aureus Sh 47, new quinolone-resistant and methicillin-resistant; same procedure as Test Example 1. Here is the method:
as §1, §2

The subject of another test is S. aureus OWPH 1770. The test is described as above. Conditions: Staphylococcus aureus, OWPH1770, 18 h; S. aureus OWPH 1770, new quinolone-resistant and methicillin-resistant; same procedure as Test Example 1. On the procedure: as §1, §2
Another test has as its system S. aureus OWPH 2127. Described as above. Conditions: Staphylococcus aureus, OWPH2127, 18 h; S. aureus OWPH 2127, new quinolone-resistant and methicillin-resistant; same procedure as Test Example 1. Here is the method: as §1, §2
A further test deals with S. aureus OWPH 2133. Described as above. The note with it: Staphylococcus aureus, OWPH2133, 18 h; S. aureus OWPH 2133, new quinolone-resistant and methicillin-resistant; same procedure as Test Example 1. Here is the method:
as §1, §2

In a further test the test system is S. aureus Sh 8. Described as above. Conditions: Staphylococcus aureus, SH8, 18 h; S. aureus Sh 8, new quinolone-resistant and methicillin-resistant; same procedure as Test Example 1. On the procedure: as §1, §2
The mark [10] stands for this setting: Proteus vulgaris, HX19, 18 h, read-out: MIC.
Setting [11] is: Staphylococcus aureus, 209P, 18 h, read-out: MIC.
Setting [12] is: Escherichia coli, KC14, 18 h, read-out: MIC.
[13] abbreviates: Staphylococcus, IFO12993, 18 h, read-out: MIC.
The mark [14] stands for this setting: Staphylococcus aureus, MRSA, 18 h, read-out: MIC.
Setting [15] is: Pseudomonas aeruginosa, IFO3445, 18 h, read-out: MIC.

In the case of `CCNc1ccc(-c2cc3c(cc2F)c(=O)c(C(=O)O)c2n3C(C)S2)cc1` (stereo not shown) [Example 47, 7-(4-Ethylaminophenyl)-6-fluoro-1-methyl-4-oxo-4H-[1,3]thiazeto[3,2-a]quinoline-3-carboxylic acid], the MIC is at most 0.006 µg/mL in test [1] (ATCC6633, read-out: MIC); 0.05 µg/mL (≈ 0.13 µM) with Proteus vulgaris HX-19 (setting [10]); 0.025 µg/mL (≈ 0.065 µM) in test [2] (setting [11]); 0.2 µg/mL (≈ 0.52 µM) in the test on Escherichia coli KC-14 (setting [12]); at most 0.006 µg/mL in test [3] (setting [13]); 0.1 µg/mL (≈ 0.26 µM) in test [4] (ATCC29212, read-out: MIC). The MIC in [5] (setting [14]) is 0.025 µg/mL (≈ 0.065 µM); in test [6] (setting [14]), 0.05 µg/mL (≈ 0.13 µM); in test [7] (read-out: MIC), at most 0.006 µg/mL; in test [8] (ATCC9341, read-out: MIC) it was 0.39 µg/mL (≈ 1.01 µM); in [9] (setting [15]), 1.56 µg/mL (≈ 4.06 µM).
With `CNc1ccc(-c2c(F)cc3c(=O)c(C(=O)O)c4n(c3c2OC)C(C)S4)cc1` (stereo not shown) [Example 49, 6-Fluoro-8-methoxy-1-methyl-7-(4-methylaminophenyl)-4-oxo-4H-[1,3]thiazeto[3,2-a]quinoline-3-carboxylic acid], the MIC in test [1] (ATCC6633, read-out: MIC) was at most 0.006 µg/mL; with Proteus vulgaris HX-19 (setting [10]), 0.39 µg/mL (≈ 0.974 µM); in test [2] (setting [11]) it was 0.025 µg/mL (≈ 0.0624 µM); in the test with Escherichia coli KC-14 (setting [12]), 0.39 µg/mL (≈ 0.974 µM); in test [3] (setting [13]) it was 0.012 µg/mL (≈ 0.03 µM); in [4] (ATCC29212, read-out: MIC), 0.025 µg/mL (≈ 0.0624 µM). In addition, the MIC in [5] (setting [14]) is 0.012 µg/mL (≈ 0.03 µM); in test [6] (setting [14]) it was 0.1 µg/mL (≈ 0.25 µM); in test [7] (read-out: MIC), at most 0.006 µg/mL; in test [8] (ATCC9341, read-out: MIC) it was 0.2 µg/mL (≈ 0.499 µM); in [9] (setting [15]), 3.13 µg/mL (≈ 7.82 µM).
Take `CC1Sc2c(C(=O)O)c(=O)c3cc(F)c(-c4ccc(N)cc4)cc3n21.Cl` (stereo not shown) [Example 55, 7-(4-Aminophenyl)-6-fluoro-1-methyl-4-oxo-4H-[1,3]thiazeto[3,2-a]quinoline-3-carboxylic acid hydrochloride]: the MIC is at most 0.006 µg/mL in test [1] (ATCC6633, read-out: MIC); 0.025 µg/mL in the test on Proteus vulgaris HX-19 (setting [10]); 0.025 µg/mL in test [2] (setting [11]); 0.1 µg/mL in the test with Escherichia coli KC-14 (setting [12]); 0.012 µg/mL in [3] (setting [13]); 0.1 µg/mL in test [4] (ATCC29212, read-out: MIC). Besides, the MIC was 0.012 µg/mL in test [5] (setting [14]); 0.05 µg/mL in [6] (setting [14]); 0.012 µg/mL in [7] (read-out: MIC); 0.39 µg/mL in test [8] (ATCC9341, read-out: MIC); 0.39 µg/mL in test [9] (setting [15]).
Take `CC1Sc2c(C(=O)O)c(=O)c3cc(F)c(-c4ccc(N)cc4)cc3n21` (stereo not shown) [Example 56, 7-(4-Aminophenyl)-6-fluoro-1-methyl-4-oxo-4H-[1,3]thiazeto[3,2-a]quinoline-3-carboxylic acid 1/2 sulfate]: the MIC in test [1] is given as at most 0.006 μ g/ml; in the test with Proteus vulgaris HX-19, at most 0.006 μ g/ml; in [2] it was 0.025 μ g/ml; against Escherichia coli KC-14 (18 hours), 0.05 μ g/ml; in [3] it was 0.012 μ g/ml; in test [4], 0.05 μ g/ml. Moreover, the MIC in test [5] is given as 0.012 μ g/ml; in [6] it was 0.05 μ g/ml; in test [7] it was at most 0.006 μ g/ml; in test [8], 0.20 μ g/ml; in test [9] it was 0.20 μ g/ml.
With `CCn1cc(C(=O)O)c(=O)c2cc(F)c(N3CCNCC3)cc21` [NFLX, norfloxacin, reference compound], the MIC against S. aureus Sh 44, in the test on S. aureus OWPH 1799, in the test with S. aureus OWPH 1786, in the test on S. aureus OWPH 1793, in the test on S. aureus Sh 54 and against S. aureus Sh 2 was over 100 µg/mL in each case. Also, the MIC against S. aureus OWPH 2128, against S. aureus OWPH 2124, against S. aureus OWPH 1796, with S. aureus OWPH 2134, in the test on S. aureus OWPH 1773 and in the test on S. aureus OWPH 1792 was over 100 µg/mL each time. Besides, the MIC against S. aureus Sh 47, with S. aureus OWPH 1770, against S. aureus OWPH 2127, with S. aureus OWPH 2133 and against S. aureus Sh 8 was over 100 µg/mL throughout.
